Laboratory results as given in US8216975B2, “Method of labelling soya varieties” (priority 2004, dated 2012).

What was measured:
[1] = system: soya varieties S40R-9 and S24-K4; assay: Field carry-over test: phytotoxicity to soya grown as subsequent crop to maize treated with HPPD herbicide; format: in vivo, Glycine max
Excerpt: Biological Test Method for the Selection of Suitable Sensitive Reference Soybean Varieties in the Field:
• a) Compound No. 2.13 according to Table 2 below was applied pre- or post-emergence to maize in three repetitions in a field in the vicinity of Ames, Iowa, USA, under practical conditions at a suitable time (pre-emergence April-May; post-emergence May-June) in a field trial using concentrations of 100, 200 and 400 g a.i./ha. Application of fertilizer, pest control and other cultivation measures were carried out in accordance with the standards customary in agriculture. Because not all weeds were controlled by the test herbicides, the test plots were kept weed-free over the entire vegetation period by the application of non-soil-active herbicides. • b) The plots were harvested and labeled in the autumn. At the customary time in […] (April/May) of the following year, the soybeans to be tested were sown in the labeled plots from the previous year and the condition of the plants on reaching the different physiological growth stages was evaluated (see Table 1). • c) The evaluation was carried out in % general phytotoxicity, which records any effects such as growth inhibition, bleaching, chlorosis, scorching or thinning. 0-4% phytotoxicity is acceptable, >4% is not acceptable under practical field conditions.
Tables A and B: Phytotoxicity of the soya varieties S40R-9 and S24-K4 as a subsequent crop to maize in which weed control has been carried out using the herbicide of formula 2.13. The herbicide was applied in an amount of 400 g/ha; in Table B an oil adjuvant (Agridex) was additionally used in an amount of 1.25% by volume.

soybean varieties = assay: Greenhouse pot test: soybean varieties sown in soil treated with HPPD inhibitor, ED20 and factor versus reference variety; format: in vivo, Glycine max
Method: Test Method for the Selection of Suitable Soybean Varieties: Categorisation of the Soybean Varieties According to Their Sensitivity to HPPD Herbicide Residues and Comparison with Sensitive and Non-Sensitive Soybean Varieties:
• 1. A non-sterilised soil is treated with the HPPD inhibitor being tested. The HPPD inhibitor being tested is applied in concentrations of 0, 20, 40 and 80 ppb and incorporated homogeneously into the soil. The soil so treated is then introduced into pots (2⅝ inch×2⅝ inch×3½ inch) and lightly firmed. • 2. Sowing: The soybean varieties being tested are sown in the pots treated as described above as follows: 3 seed grains are used per pot, the seeds being pressed lightly into the soil (under the surface of the soil) and covered over with soil. In each test, varieties having known sensitivity are also tested as reference. These are the soybean varieties NK S40-R9 and Pioneer P94B01. Shortly after germination, the plants are thinned out to two plants per pot. The plants receive an optimum supply of water and nutrients and are kept in a greenhouse at 20-24° C., with 16 hours exposure to light per day. • 3. 3-4 Weeks after sowing, the condition of the plants is evaluated visually. Symptoms of damage to the plants, such as chlorosis, bleaching and growth inhibition (‘stunting’), are assessed and compared with an untreated soya plant of the same variety. • 4. Calculation: The repetitions are combined and a linear regression analysis is carried out with non-transformed data. ED20 values (=effective dose at which damage is 20% in comparison with the untreated control) are calculated from the regression curve for each variety. The soybeans are grouped according to whether they are “sensitive” or “tolerant” by comparing the ED20 values of the test varieties with those of the standard varieties, that is to say by determining a factor with respect to the reference variety.

## COCCOCc1nc(C(F)(F)F)ccc1C(=O)C1=C(O)C2CCC(C2)C1=O (stereo not drawn) [Compound No. 2.13]
[1]; Table A, soya variety NK S40-R9, 400 g/ha on maize, 29 days after sowing, 404 days after herbicide application, BBCH12/BBCH13
  % Phytotoxicity (mean value): 6.67%
[1]; Table A, soya variety NK S40-R9, 400 g/ha on maize, 42 days after sowing, 417 days after herbicide application, BBCH14/BBCH14
  % Phytotoxicity (mean value): 13%
[1]; Table A, soya variety NK S40-R9, 400 g/ha on maize, 56 days after sowing, 431 days after herbicide application, BBCH16/BBCH17
  % Phytotoxicity (mean value): 14.33%
[1]; Table A, soya variety NK-S24-K4, 400 g/ha on maize, 29 days after sowing, 404 days after herbicide application, BBCH12/BBCH13
  % Phytotoxicity (mean value): 0%
[1]; Table A, soya variety NK-S24-K4, 400 g/ha on maize, 42 days after sowing, 417 days after herbicide application, BBCH14/BBCH14
  % Phytotoxicity (mean value): 0%
[1]; Table A, soya variety NK-S24-K4, 400 g/ha on maize, 56 days after sowing, 431 days after herbicide application, BBCH16/BBCH17
  % Phytotoxicity (mean value): 0%
[1]; Table B, soya variety NK S40-R9, 400 g/ha on maize plus oil adjuvant (Agridex) 1.25% by volume, 29 days after sowing, 404 days after herbicide application, BBCH12/BBCH13
  % Phytotoxicity (mean value): 36.67%
[1]; Table B, soya variety NK S40-R9, 400 g/ha on maize plus oil adjuvant (Agridex) 1.25% by volume, 42 days after sowing, 417 days after herbicide application, BBCH14/BBCH14
  % Phytotoxicity (mean value): 49.33%
[1]; Table B, soya variety NK S40-R9, 400 g/ha on maize plus oil adjuvant (Agridex) 1.25% by volume, 56 days after sowing, 431 days after herbicide application, BBCH16/BBCH17
  % Phytotoxicity (mean value): 56.67%
[1]; Table B, soya variety NK-S24-K4, 400 g/ha on maize plus oil adjuvant (Agridex) 1.25% by volume, 29 days after sowing, 404 days after herbicide application, BBCH12/BBCH13
  % Phytotoxicity (mean value): 5.67%
[1]; Table B, soya variety NK-S24-K4, 400 g/ha on maize plus oil adjuvant (Agridex) 1.25% by volume, 42 days after sowing, 417 days after herbicide application, BBCH14/BBCH14
  % Phytotoxicity (mean value): 3.33%
[1]; Table B, soya variety NK-S24-K4, 400 g/ha on maize plus oil adjuvant (Agridex) 1.25% by volume, 56 days after sowing, 431 days after herbicide application, BBCH16/BBCH17
  % Phytotoxicity (mean value): 1.67%
Soybean varieties; soya variety AGI 7370 RR
  Factor with respect to reference variety NK S40-R9, based on ED20 values: 1.0
Soybean varieties; soya variety Agripro 2502 RR
  Factor with respect to reference variety NK S40-R9, based on ED20 values: 5.3
Soybean varieties; soya variety Agripro 2547 RR/N
  Factor with respect to reference variety NK S40-R9, based on ED20 values: 4.7
Soybean varieties; soya variety Agway APK 190
  Factor with respect to reference variety NK S40-R9, based on ED20 values: 12.2
Soybean varieties; soya variety Agway APK256 RR
  Factor with respect to reference variety NK S40-R9, based on ED20 values: 5.6
Soybean varieties; soya variety Asgrow 1602
  Factor with respect to reference variety NK S40-R9, based on ED20 values: 5.4
Soybean varieties; soya variety Asgrow 2105
  Factor with respect to reference variety NK S40-R9, based on ED20 values: 6.5
Soybean varieties; soya variety Asgrow 2705
  Factor with respect to reference variety NK S40-R9, based on ED20 values: 5.0
Soybean varieties; soya variety Asgrow AG1401 RR
  Factor with respect to reference variety NK S40-R9, based on ED20 values: 4.5
Soybean varieties; soya variety Asgrow AG2302
  Factor with respect to reference variety NK S40-R9, based on ED20 values: 4.7
Soybean varieties; soya variety Asgrow AG3902
  Factor with respect to reference variety NK S40-R9, based on ED20 values: 4.7
Soybean varieties; soya variety Asgrow AG4403
  Factor with respect to reference variety NK S40-R9, based on ED20 values: 8.5
Soybean varieties; soya variety Beck's 336NRR
  Factor with respect to reference variety NK S40-R9, based on ED20 values: 4.5
Soybean varieties; soya variety Beck's 366NRR
  Factor with respect to reference variety NK S40-R9, based on ED20 values: 4.9
Soybean varieties; soya variety D King 4868RR
  Factor with respect to reference variety NK S40-R9, based on ED20 values: 4.4
Soybean varieties; soya variety Dekalb DK32-51
  Factor with respect to reference variety NK S40-R9, based on ED20 values: 5.3
Soybean varieties; soya variety Dekalb DKB23-51
  Factor with respect to reference variety NK S40-R9, based on ED20 values: 5.8
Soybean varieties; soya variety Dekalb DKB36-51
  Factor with respect to reference variety NK S40-R9, based on ED20 values: 4.2
Soybean varieties; soya variety Garst 2677 RR
  Factor with respect to reference variety NK S40-R9, based on ED20 values: 4.1
Soybean varieties; soya variety Gld H H3505RR
  Factor with respect to reference variety NK S40-R9, based on ED20 values: 5.8
Soybean varieties; soya variety Kruger 279 RR
  Factor with respect to reference variety NK S40-R9, based on ED20 values: 3.4
Soybean varieties; soya variety Kruger 323 RR
  Factor with respect to reference variety NK S40-R9, based on ED20 values: 4.3
Soybean varieties; soya variety MFA RT 3660N
  Factor with respect to reference variety NK S40-R9, based on ED20 values: 4.3
Soybean varieties; soya variety Mustang M-222RR
  Factor with respect to reference variety NK S40-R9, based on ED20 values: 0.8
Soybean varieties; soya variety NK S24-K4
  Factor with respect to reference variety NK S40-R9, based on ED20 values: 3.6
Soybean varieties; soya variety NK S35-A6
  Factor with respect to reference variety NK S40-R9, based on ED20 values: 5.3
Soybean varieties; soya variety NK S40-R9 (reference variety)
  Factor with respect to reference variety NK S40-R9, based on ED20 values: 1.0
Soybean varieties; soya variety NK S46-W8
  Factor with respect to reference variety NK S40-R9, based on ED20 values: 0.5
Soybean varieties; soya variety Pioneer 90B51
  Factor with respect to reference variety NK S40-R9, based on ED20 values: 1.1
Soybean varieties; soya variety Pioneer 91B33
  Factor with respect to reference variety NK S40-R9, based on ED20 values: 4.9
Soybean varieties; soya variety Pioneer 91B91
  Factor with respect to reference variety NK S40-R9, based on ED20 values: 3.0
Soybean varieties; soya variety Pioneer 93B67
  Factor with respect to reference variety NK S40-R9, based on ED20 values: 1.1
Soybean varieties; soya variety Pioneer 94B01
  Factor with respect to reference variety NK S40-R9, based on ED20 values: 0.8
Soybean varieties; soya variety Pioneer 94B54
  Factor with respect to reference variety NK S40-R9, based on ED20 values: 1.6
Soybean varieties; soya variety Pioneer 9492
  Factor with respect to reference variety NK S40-R9, based on ED20 values: 1.0
Soybean varieties; soya variety Pioneer P92B38
  Factor with respect to reference variety NK S40-R9, based on ED20 values: 4.3
Soybean varieties; soya variety S21-H7 STS
  Factor with respect to reference variety NK S40-R9, based on ED20 values: 5.03
Soybean varieties; soya variety S34-A9 STS
  Factor with respect to reference variety NK S40-R9, based on ED20 values: 8.0
Soybean varieties; soya variety S. Grow SG948RR
  Factor with respect to reference variety NK S40-R9, based on ED20 values: 1.2

## CS(=O)(=O)c1ccc(C(=O)C2C(=O)CCCC2=O)c([N+](=O)[O-])c1 [2.04, reference compound]
Soybean varieties; Table D, soya variety S21-H7 STS
  Factor with respect to reference variety NK S40-R9, based on ED20 values: 3.45
Soybean varieties; Table D, soya variety S34-A9 STS
  Factor with respect to reference variety NK S40-R9, based on ED20 values: 4.56
Soybean varieties; Table D, soya variety S40-R9 (reference variety)
  Factor with respect to reference variety NK S40-R9, based on ED20 values: 1.0
